The values that follow come from patent publication US20180296530A1, “METHOD FOR TREATING ATOPIC DERMATITIS” (priority 2015, published 2018).

The structures appear in SMILES notation.

Type in all cases: in vivo, Balb/c mice
For assay [1], the system named is DNCB-induced AD mouse model. In words: Example 5: dermatitis severity, topical melatonin in DNCB-induced AD mouse model. The method, then: (§1) Four- to six-week-old Balb/c mice were maintained under specific pathogen-free conditions. Animals were housed in an air-conditioned animal room (25±1° C.; relative humidity 40±5%) and were fed a laboratory diet and distilled water. Animal care and handling protocols were approved by the Animal Committee of the College of Medicine, Taiwan University, and all procedures were conducted in accordance with the U.S. National Institute of Health guidelines.
The protocol for establishing an AD mouse model in this Example was modified from those described previously. Briefly, referring to FIG. 4, DNCB-induced AD mouse model was prepared by the repeated applications of 20 μL of 1% DNCB in acetone/olive oil (4:1) to the outer and inner surfaces of mouse ears and 100 μL of the same solution to the shaved back skin once on days 1, 2, and 3. Mice of Control group were treated with the identical volumes of vehicle. […]
Macroscopic assessment of the severity of dermatitis was determined by a scoring method as described previously. Briefly, the degree of each sign were scored as 0 (none), 1 (mild), 2 (moderate), and 3 (severe). […] Ear thickness was measured with a thickness gauge (Digimatic Indicator, Mitsutoyo, Tokyo). […]

The subject of assay [2] is DNCB-induced AD mouse model. In words: Example 6: dermatitis severity, topical melatonin cream in DNCB-induced AD mouse model. Conditions: for clinical score (dermatitis): day 1 to day 14, Day 15, DNCB group 10, Control 0. As to the method:
Macroscopic assessment of the severity of dermatitis was determined by a scoring method as described previously. Briefly, the degree of each sign were scored as 0 (none), 1 (mild), 2 (moderate), and 3 (severe). This scoring was based on the severity of erythema (hemorrhage), edema, excoriation (erosion), and dryness (scaling). The total score (minimum 0 and maximum 12) from the four symptoms of each mouse were taken as the score for that mouse. Ear thickness was measured with a thickness gauge (Digimatic Indicator, Mitsutoyo, Tokyo). This assessment was performed on the last day of the experiment (Day 20) by an investigator who was blind to the grouping of the animals.
as §1
(§2) The protocol for establishing an AD mouse model in this Example was modified from those described previously. Briefly, referring to FIG. 12, DNCB-induced AD mouse model was prepared by the repeated applications of 20 μL of 1% DNCB in acetone/olive oil (4:1) to the outer and inner surfaces of mouse ears and 100 μL of the same solution to the shaved back skin once on days 1 and 4. Mice of Control group were treated with the identical volumes of vehicle.
The DNCB-sensitized mice were randomly assigned to one of four groups: DNCB, DNCB+0.1% topical melatonin, DNCB+1% topical melatonin, DNCB+8% topical melatonin. Each group (including Control group) consisted of 3 mice. On days 8 and 11, sensitized mice was challenged by applying 0.2% DNCB to the skin surfaces. For the three groups treated with topical melatonin groups, 0.1 mg of topical melatonin cream was given twice a day from day 1 to day 14. The cream base consisted of a mixture of tefose 63, octyldodecyl myristate, sorbic acid, methyl paraben sodium, ddH2O, and apricot kernel oil. For Control and DNCB groups, 0.1 mg of cream base was given twice a day from day 1 to day 14. This experiment was ended at Day 15.
The dermatitis severity of each mouse treated with or without melatonin was evaluated in the same manner as those described in Example 5. This evaluation was performed on the last day of the experiment (Day 15) by an investigator who was blind to the grouping of the animals.

Another assay has as its system serum total IgE. Briefly: Example 6: serum IgE in DNCB-induced AD mouse model. As to the method: Blood and dorsal skin of each mouse were collected on the last day of the experiment (Day 20) and stored at −80° C. until use. Serum IgE levels were measured using the ImmunoCAP fluorescence enzyme immunoassay (Phadia AB, Sweden) according to the manufacturer's instructions. The dorsal skin mRNA expression of the cytokines IL-4, IL-13, and IL-17 were measured by RT-PCR.
as §2
The DNCB-sensitized mice were randomly assigned to one of four groups: DNCB, DNCB+0.1% topical melatonin, DNCB+1% topical melatonin, DNCB+8% topical melatonin. Each group (including Control group) consisted of 3 mice. On days 8 and 11, sensitized mice was challenged by applying 0.2% DNCB to the skin surfaces. For the three groups treated with topical melatonin groups, 0.1 mg of topical melatonin cream was given twice a day from day 1 to day 14. […]
The serum IgE levels were measured on the last day of the experiment (Day 15) in the same manner as those described in Example 5.

`COc1ccc2[nH]cc(CCNC(C)=O)c2c1` [Melatonin, melatonin]: the “gross findings of dermatitis” value in assay [1] (DNCB-stimulated mice treated with melatonin, FIG. 5, less skin erythema, less skin excoriation, improved hair growth) was “dermatitis was improved”. This molecule returned a Dermatitis clinical score in assay [1] (after topical melatonin treatment, decreased from 12, total score 0 to 12, Day 20, concentration not given) of 3. Further, the “clinical score (dermatitis)” value in assay [2] (0.1% melatonin cream twice a day) worked out at 7; in assay [2] (8% melatonin cream twice a day), 2. Further, the gross skin findings result in assay [2] (0.1%, 1%, and 8% topical melatonin, 8% improved the skin severity most) is reported as “improved the gross skin findings in a dose-dependent manner”. Also, the Ear thickness entry in assay [2] (after 8% melatonin treatment, FIG. 14) is reported as “significantly improved”. Besides, the “serum total IgE levels” value in the assay with serum total IgE (8% topical melatonin treatment, FIG. 15) is “lowered the total serum IgE most”; in the assay with serum total IgE (after topical melatonin treatment (0.1%, 1%, 8%), dose-response relationship, FIG. 15, Day 15), “reduced”.
